Patent publication US4833242A, “Cephalosporin derivatives and salts thereof” (Daiichi Seiyaku Co., Ltd., priority 1984, dated 1989)
In brackets after ≈: the same amount, converted by molar mass. Counter-ions that a name gives are not always drawn.

What was measured:
[1] = tested on: Ser. marcescens, 10104; test: Minimum Inhibitory Concentration, broth dilution method; type: cell-based; details: Serratia marcescens, 10^6 cells/ml, 37° C., 18 hours
Protocol: (§1) |Minimum Inhibitory Concentration (MIC, μg/ml) |(Broth dilution method, inoculated amount: 10^6 cells/ml, incubated |at 37° C. for 18 hours)

[2] = tested on: S. aureus, 209P; test: as above; type: cell-based; details: Staphylococcus aureus, 10^6 cells/ml, 37° C., 18 hours
Protocol: as §1

[3] = tested on: Pr. vulgaris, 08601; test: as above; type: cell-based; details: Proteus vulgaris, 10^6 cells/ml, 37° C., 18 hours
Protocol: as §1

[4] = tested on: E. coli, NIHJ; test: as above; type: cell-based; details: Escherichia coli, 10^6 cells/ml, 37° C., 18 hours
Protocol: as §1

[5] = tested on: Ps. aeruginosa, 32121; test: as above; type: cell-based; details: Pseudomonas aeruginosa, 10^6 cells/ml, 37° C., 18 hours
Protocol: as §1

[6] = tested on: Ps. putida, IID 5121; test: as above; type: cell-based; details: Pseudomonas putida, IID5121, 10^6 cells/ml, 37° C., 18 hours
Protocol: as §1

[7] = tested on: Ps. aeruginosa, 32234; test: as above; type: cell-based; details: Pseudomonas aeruginosa, 10^6 cells/ml, 37° C., 18 hours
Protocol: as §1

[8] = tested on: Ps. aeruginosa, 32104; test: as above; type: cell-based; details: Pseudomonas aeruginosa, 10^6 cells/ml, 37° C., 18 hours
Protocol: as §1

[9] = acute toxicity, i.v. in mice; details: mouse, in vivo, iv
[10] = tested on: male rats; test: repeated intravenous administration to male rats for 10 consecutive days; type: in vivo; details: intravenous, 100, 300 or 1,000 mg/kg
From the text: The compounds of this invention are also characterized by low toxicity and, therefore, have a wide safety margin.

Row | SMILES | MIC [1] | MIC [2] | MIC [3] | MIC [4] | MIC [5] | MIC [6] | MIC [7] | MIC [8] | LD50 [9] | body weight, clinical examinations, weight of various organs and histological findings [10]
1 | CO/N=C(\C(=O)N[C@@H]1C(=O)N2C(C(=O)O)=C(COC(C)=O)CS[C@H]12)c1csc(N)n1 [Cefotaxime, Sodium 7β-[2-(2-aminothiazol-4-yl)-2-methoxyiminoacetamido]-3-acetoxymethyl-3-cephem-4-carboxylate (syn isomer), reference compound] | 0.39 mg/L | 3.13 mg/L | < 0.1 mg/L | < 0.1 mg/L | 12.5 mg/L | 50 mg/L | 12.5 mg/L | 25 mg/L |  | 
2 | CO/N=C(\C(=O)N[C@@H]1C(=O)N2C(C(=O)[O-])=C(C[n+]3ccc(-n4ccnc4)cc3)CS[C@H]12)c1csc(N)n1 [Compound A, 7β-[2-(2-Aminothiazol-4-yl)-2-methoxyiminoacetamido]-3-[4-(imidazol-1-yl)-1-pyridinio]methyl-3-cephem-4-carboxylate trihydrochloride (syn isomer)] | < 0.1 mg/L | 0.39 mg/L | < 0.1 mg/L | < 0.1 mg/L | 1.56 mg/L | 1.56 mg/L | 1.56 mg/L | 1.56 mg/L | 2000 to 4000 mg/kg | 
3 | CO/N=C(\C(=O)N[C@@H]1C(=O)N2C(C(=O)[O-])=C(C[n+]3ccc(-n4cncn4)cc3)CS[C@H]12)c1csc(N)n1 [Compound B, 7β-[2-(2-Aminothiazol-4-yl)-2-methoxyiminoacetamido]-3-[4-(1,2,4-triazol-1-yl)-1-pyridinio]methyl-3-cephem-4-carboxylate dihydrochloride (syn isomer)] | < 0.1 mg/L | 0.78 mg/L | < 0.1 mg/L | < 0.1 mg/L | 0.78 mg/L | 6.25 mg/L | 0.78 mg/L | 1.56 mg/L |  | 
4 | CO/N=C(\C(=O)N[C@@H]1C(=O)N2C(C(=O)[O-])=C(C[n+]3ccc(-c4ncc[nH]4)cc3)CS[C@H]12)c1csc(N)n1 [Compound C, 7β-[2-(2-Aminothiazol-4-yl)-2-methoxyiminoacetamido]-3-[4-(imidazol-2-yl)-1-pyridinio]methyl-3-cephem-4-carboxylate trihydrochloride (syn isomer)] | < 0.1 mg/L | 0.78 mg/L | < 0.1 mg/L | < 0.1 mg/L | 12.5 mg/L | 12.5 mg/L | 1.56 mg/L | 25 mg/L |  | 
5 | CO/N=C(\C(=O)N[C@@H]1C(=O)N2C(C(=O)[O-])=C(C[n+]3ccc(-c4ncco4)cc3)CS[C@H]12)c1csc(N)n1 [Compound D, 7β-[2-(2-Aminothiazol-4-yl)-2-methoxyiminoacetamido]-3-[4-(oxazol-2-yl)-1-pyridinio]methyl-3-cephem-4-carboxylate (syn isomer)] | < 0.1 mg/L | 0.78 mg/L (≈ 1.44 µM) | < 0.1 mg/L | < 0.1 mg/L | 1.56 mg/L (≈ 2.88 µM) | 3.13 mg/L (≈ 5.78 µM) | 1.56 mg/L (≈ 2.88 µM) | 3.13 mg/L (≈ 5.78 µM) | > 4000 mg/kg | 
6 | CO/N=C(\C(=O)N[C@@H]1C(=O)N2C(C(=O)[O-])=C(C[n+]3ccc(-c4cnco4)cc3)CS[C@H]12)c1csc(N)n1 [Compound E, 7β-[2-(2-Aminothiazol-4-yl)-2-methoxyiminoacetamido]-3-[4-(oxazol-5-yl)-1-pyridinio]methyl-3-cephem-4-carboxylate (syn isomer)] | < 0.1 mg/L | 0.39 mg/L (≈ 0.72 µM) | < 0.1 mg/L | < 0.1 mg/L | 0.78 mg/L (≈ 1.44 µM) | 3.13 mg/L (≈ 5.78 µM) | 0.78 mg/L (≈ 1.44 µM) | 1.56 mg/L (≈ 2.88 µM) | > 4000 mg/kg | no abnormality were observed
7 | CO/N=C(\C(=O)N[C@@H]1C(=O)N2C(C(=O)[O-])=C(C[n+]3ccc(-c4nnco4)cc3)CS[C@H]12)c1csc(N)n1 [Compound F, 7β-[2-(2-Aminothiazol-4-yl)-2-methoxyiminoacetamido]-3-[4-(1,3,4-oxadiazol-2-yl)-1-pyridinio]-methyl-3-cephem-4-carboxylate (syn isomer)] | < 0.1 mg/L | 0.39 mg/L (≈ 0.719 µM) | 0.1 mg/L (≈ 0.184 µM) | < 0.1 mg/L | 0.78 mg/L (≈ 1.44 µM) | 1.56 mg/L (≈ 2.88 µM) | 0.78 mg/L (≈ 1.44 µM) | 0.78 mg/L (≈ 1.44 µM) | > 4000 mg/kg | 
8 | CO/N=C(\C(=O)N[C@@H]1C(=O)N2C(C(=O)[O-])=C(C[n+]3cccc(-c4cnco4)c3)CS[C@H]12)c1csc(N)n1 [Compound G, 7β-[2-(2-Aminothiazol-4-yl)-2-methoxyiminoacetamido]-3-[3-(oxazol-5-yl)-1-pyridinio]methyl-3-cephem-4-carboxylate (syn isomer)] | < 0.1 mg/L | 0.39 mg/L (≈ 0.72 µM) | 0.1 mg/L (≈ 0.185 µM) | < 0.1 mg/L | 1.56 mg/L (≈ 2.88 µM) | 12.5 mg/L (≈ 23.1 µM) | 1.56 mg/L (≈ 2.88 µM) | 3.13 mg/L (≈ 5.78 µM) |  | 
9 | CO/N=C(\C(=O)N[C@@H]1C(=O)N2C(C(=O)[O-])=C(C[n+]3ccc(-c4csnn4)cc3)CS[C@H]12)c1csc(N)n1 [Compound H, 7β-[2-(2-Aminothiazol-4-yl)-2-methoxyiminoacetamido]-3-[4-(1,2,3-thiadiazol-4-yl)-1-pyridinio]methyl-3-cephem-4-carboxylate dihydrochloride (syn isomer)] | < 0.1 mg/L | 0.39 mg/L | < 0.1 mg/L | < 0.1 mg/L | 1.56 mg/L | 12.5 mg/L | 0.78 mg/L | 1.56 mg/L |  | 
